Assay results as given in patent publication US20230060425A1, “FUSED BICYCLIC HETEROCYCLE DERIVATIVES AS PESTICIDES” (Bayer Aktiengesellschaft, priority 2019, published 2023).
Read-outs that look alike come from different tables or passages of the source.

Legend:
Format in all cases: in vivo
Spodoptera frugiperda = Spodoptera frugiperda test on maize plants (SPODFR S); settings: 6 dai, read-out: % Efficacy
Description: Spodoptera frugiperda Test (SPODFR S)
(§1) Solvent: 14 parts by weight of dimethylformamide
Emulsifier: 2 parts by weight of alkylaryl polyglycol ether
To produce a suitable active compound formulation, 1 part by weight of active compound is dissolved with the stated parts by weight of solvent and emulsifier and made up to the desired concentration with water. To produce further test concentrations, water is used for dilution. In the event that addition of ammonium salts or/and penetrants (rapeseed oil methyl ester) is required, these are each pipetted in at a concentration of 1000 ppm after the finished formulation solution has been diluted.
Maize plants (Zea mays) are sprayed with an active compound formulation of the desired concentration and, in each case after 5, 12 and 19 days, populated with 5 caterpillars (L2) of the fall armyworm (Spodoptera frugiperda).
The kill is determined 6 days after the infection. 100% means that all the caterpillars have been killed and 0% means that none of the caterpillars have been killed.

Rhipicephalus sanguineus = Rhipicephalus sanguineus in vitro contact test with adult brown dog ticks; settings: application rate 5 μg/cm^2; after 48 h; ticks dead or moribund
Description: Rhipicephalus sanguineus—In Vitro Contact Tests with Adult Brown Dog Ticks
For the coating of the test tubes, 9 mg of active compound are first dissolved in 1 ml of acetone p.a. and then diluted to the desired concentration with acetone p.a. 250 μl of the solution are distributed homogeneously on the inner walls and the base of a 25 ml glass tube by turning and rocking on an orbital shaker (rocking rotation at 30 rpm for 2 h). With 900 ppm of active compound solution and internal surface area 44.7 cm^2, given homogeneous distribution, an area-based dose of 5 μg/cm^2 is achieved.
After the solvent has evaporated off, the tubes are populated with 5-10 adult dog ticks (Rhipicephalus sanguineus), sealed with a perforated plastic lid and incubated in a horizontal position in the dark at room temperature and ambient humidity. After 48 h, efficacy is determined. To this end, the ticks are knocked to the base of the tube and incubated on a hotplate at 45-50° C. for not more than 5 min. Ticks which remain motionless on the base or move in such an uncoordinated manner that they are unable to deliberately avoid the heat by climbing upwards are considered to be dead or moribund.
An efficacy of 100% means that all the ticks were dead or moribund. 0% efficacy means that none of the ticks were harmed.

Myzus persicae [1] = experiment: Myzus persicae spray test (MYZUPE), comparative; settings: 120 h, 5 dat, read-out: % Efficacy
Description: Myzus persicae—Spray Test (MYZUPE)
Solvent: • 78.0 parts by weight of acetone • 1.5 parts by weight of dimethylformamide
(§2) Emulsifier: alkylaryl polyglycol ether
(§3) To produce a suitable active compound preparation, 1 part by weight of active compound is dissolved using the stated parts by weight of solvent and made up with water containing an emulsifier concentration of 1000 ppm until the desired concentration is attained. To produce further test concentrations, the formulation is diluted with emulsifier-containing water.
Discs of Chinese cabbage leaves (Brassica pekinensis) infested by all stages of the green peach aphid (Myzus persicae) are sprayed with an active compound preparation of the desired concentration.
(§4) After the desired period of time, the efficacy in % is determined. 100% means that all the aphids have been killed; 0% means that no aphids have been killed.

Myzus persicae [2] = experiment: Myzus persicae drench test (MYZUPE D); settings: soil, 240 h, 10 dat, read-out: % Efficacy
Description: Myzus persicae—Drench Test (MYZUPE D)
Solvent: 7 parts by weight of dimethylformamide
Emulsifier: 2 part by weight of alkylaryl polyglycol ether
To produce a suitable active compound preparation, 1 part by weight of active compound is mixed with the specified amounts of solvent and emulsifier, and the concentrate is diluted with water to the desired concentration, it being necessary to include the volume of soil which is drenched in the calculation. It should be ensured that a concentration of 40 ppm of emulsifier in the soil is not exceeded. To produce further test concentrations, water is used for dilution.
Savoy cabbage (Brassica oleracea) in pots with soil and infested by all stages of the green peach aphid (Myzus persicae) is watered with an active compound preparation of the desired concentration.
as §4

Myzus persicae [3] = experiment: Myzus persicae spray test; settings: foliar, 120 h, application rate 100 g/ha, Chinese cabbage leaf discs, after 5 days, read-out: efficacy
In short: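 Chinese cabbage leaf discs infested with all stages of Myzus persicae were sprayed with compound in acetone/DMF, diluted in water containing 1000 ppm emulsifier. Efficacy in % assessed after 5 days: 100% all aphids killed, 0% none killed.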

Myzus persicae [4] = experiment: Myzus persicae spray test on bell pepper plants (MYZUPE S); settings: 144 h, 6 dat, read-out: % Efficacy
Description: Myzus persicae—Spray Test (MYZUPE S)
as §1, §2
as §3, with “water. If the addition of ammonium salts or/and penetrants is required, these are each added in a concentration of 1000 ppm to the formulation solution.” for “water.”
Bell pepper plants (Capsicum annuum) severely infested with the green peach aphid (Myzus persicae) are treated by spraying with the active compound formulation in the desired concentration.
After the desired time, the kill in % is determined. 100% means that all the animals have been killed; 0% means that no animals have been killed.

## CCS(=O)(=O)c1c(-c2nc3cc(C(F)(F)F)cnc3n2C)ncc2cc(Br)ccc12 [Example I-037, 7-Bromo-4-ethylsulfonyl-3-[3-methyl-6-(trifluoromethyl)imidazo[4,5-b]pyridin-2-yl]isoquinoline]
Spodoptera frugiperda; 120 h, infection 5 dat
  Emax at 0.16 ppm: 70%
Spodoptera frugiperda; 288 h, infection 12 dat
  Emax at 0.16 ppm: 50%
  Emax at 0.8 ppm: 100%
Spodoptera frugiperda; 456 h, infection 19 dat
  Emax at 0.8 ppm: 100%
Rhipicephalus sanguineus
  efficacy: 100%
Myzus persicae [1]; 4 g of ai/ha
  Emax at 4 g/ha: 70%
Myzus persicae [1]; 20 g of ai/ha
  Emax at 20 g/ha: 90%
Myzus persicae [2]
  Emax at 4 ppm: 90%
Myzus persicae [3]
  pest or weed control at 100 g/ha: 100%
Myzus persicae [4]; 0.8 ppm
  Emax at 0.8 ppm: 100%
Myzus persicae [4]; 4 ppm
  Emax at 4 ppm: 100%
